Literature values as cited in patent US6727227B1, “Tetrapetide revealing geroprotective effect, pharmacological substance on its basis, and the method of its application” (Obschestvo S Ogranichennoi Otvetstven-Nostiju “Klinika …, priority 2002, dated 2004).

What was measured:
experimental animals = conditions: cited from earlier work
mice = conditions: cited from earlier work
[1] = tested on: Drosophila melanogaster (HEM strain); conditions: cited from earlier work
mice of C3H strain = conditions: addition to food; cited from earlier work
mice of SAM strain = conditions: diet with increased amount for 7 months; cited from earlier work
LAF1 strain in mice = conditions: LAF1 mice with accelerated ageing, food-supplement; cited from earlier work

Compound | Life span (experimental animals) | also measured
O=C(O)[C@H](O)[C@@H](O)[C@H](O)[C@H](O)CO [gluconic acid, lactic and gluconic acids] | insignificant extension in the life span | –
COc1ccc2[nH]cc(CCNC(C)=O)c2c1 [melatonin] | – | Average life span (mice): A minor increase in the average life span; Geroprotective effect [1]: failed to produce a geroprotective effect
NCCS [2-mercaptoethanolamine] | insignificant extension in the life span | –
CCc1nc(C)ccc1O.Cl [2-ethyl-6-methyl-3-oxypyridine chlorhydrate] | An increase in the life span | –
N[C@@H](CCC(=O)N[C@@H](CS)C(=O)NCC(=O)O)C(=O)O [glutathione] | insignificant extension in the life span | –
vitamin E | increase in the life span | –
Oc1cccnc1 [3-hydroxypyridine] | insignificant extension in the life span | –
vitamin A | increase in the life span | –
CCOc1ccc2c(c1)C(C)=CC(C)(C)N2 [ethoxyhin] | – | Life span (mice of C3H strain): extended the life span
NCCC(=O)N[C@@H](Cc1cnc[nH]1)C(=O)O [carnosine] | – | Death rate (mice of SAM strain): death rat decreased
O=C1O[C@H]([C@@H](O)CO)C(O)=C1O [vitamin C] | increase in the life span | –
CN(C)CCOC(=O)COc1ccc(Cl)cc1 [centrophenoxyn] | insignificant extension in the life span | –
butyl hydroxytoluol | insignificant extension in the life span | –
N[C@@H](CS)C(=O)O [cystein] | insignificant extension in the life span | –
Cc1cc(C(C)(C)C)c(O)c(C(C)(C)C)c1 [Ionol, 2.6-di-tert-butyl4-methylphenol] | – | Life span (LAF1 strain in mice): promoted an increase in the life span
